Structures are written as SMILES.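 A five-concentration, 48-hour dose response in 96-well plates underlies each endpoint, interpolated linearly between surrounding concentrations. GI50 marks 50% less growth. TGI: total growth inhibition.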

Some test systems named below: MALME-3M melanoma; RPMI-8226 leukemia; MCF7 breast; 786-0 renal; OVCAR-4 ovarian; LOX IMVI melanoma; COLO 205 colon; PC-3 prostate; SK-OV-3 ovarian; SW-620 colon.
Common to all, as to assay: NCI-60 cell line screen, 48 h

For the compound `CS(=O)(=O)c1ccc(Nc2nc(N[C@H]3CCCC[C@H]3N)nc3cc[nH]c(=O)c23)cc1`, the GI50 in the experiment with MALME-3M melanoma was 1.73 µM; with RPMI-8226 leukemia, 4000 nM; with MCF7 breast, 0.326 µM; in the experiment on 786-0 renal, 3.28 µM; in the experiment on OVCAR-4 ovarian, 1890 nM; in the experiment on LOX IMVI melanoma it was 857 nM. The GI50 with COLO 205 colon was 865 nM; in the experiment with PC-3 prostate it was 2460 nM; in the experiment on SK-OV-3 ovarian, 3.17 µM; with SW-620 colon it was 627 nM. The TGI is 4.64 µM with MALME-3M melanoma; 32.8 µM with RPMI-8226 leukemia; 13.4 µM in the experiment with MCF7 breast; 20.6 µM in the experiment with 786-0 renal; 9.81 µM in the experiment with OVCAR-4 ovarian; 6.7 µM in the experiment on LOX IMVI melanoma. Moreover, the TGI with COLO 205 colon is 2.35 µM; with PC-3 prostate, greater than 100 µM; in the experiment with SK-OV-3 ovarian, greater than 100 µM; in the experiment with SW-620 colon it was 8.6 µM.

Consider `COc1cccc2cc(N(C)c3nc(C)nc4c3CCC4)ccc12`, for which the GI50 in the experiment on MALME-3M melanoma was 12 µM; with RPMI-8226 leukemia it was less than 10 nM; in the experiment on MCF7 breast, less than 0.01 µM; with 786-0 renal, less than 0.01 µM; in the experiment on OVCAR-4 ovarian, less than 10.4 nM; with LOX IMVI melanoma it was less than 10 nM. For the same compound, the GI50 is less than 10 nM in the experiment with COLO 205 colon, less than 10 nM in the experiment with PC-3 prostate, less than 0.01 µM with SK-OV-3 ovarian and less than 10 nM in the experiment with SW-620 colon. The TGI was 27.9 µM with MALME-3M melanoma; 18.5 µM in the experiment on RPMI-8226 leukemia; 14.6 µM in the experiment with MCF7 breast; 14.4 µM with 786-0 renal; 20 µM with OVCAR-4 ovarian; 13.8 µM in the experiment with LOX IMVI melanoma. Besides, the figures for the TGI in the experiment with COLO 205 colon, in the experiment on PC-3 prostate and with SW-620 colon were less than 0.01 µM, 16.4 µM and 18.6 µM, respectively.

For the compound `CC(C)OC(=S)Nc1ccc(Cl)c(/C=N/OC(C)(C)C)c1`, the TGI in the experiment with MALME-3M melanoma turned out to be 34.2 µM; with RPMI-8226 leukemia it was 51.3 µM; with MCF7 breast it was 51 µM; in the experiment on 786-0 renal, 34.3 µM; in the experiment with OVCAR-4 ovarian it was 35.3 µM; with LOX IMVI melanoma, 34.3 µM. Besides, the TGI came to 32.3 µM in the experiment on COLO 205 colon, 38.1 µM with PC-3 prostate, 41.6 µM with SK-OV-3 ovarian and 32 µM in the experiment with SW-620 colon.

`Cc1cc(C)c(C#N)c(Sc2nc(C)c([N+](=O)[O-])c(C)c2C#N)n1`: the GI50 is 2.27 µM in the experiment on MALME-3M melanoma; 2840 nM with RPMI-8226 leukemia; 3.11 µM with MCF7 breast; 5.04 µM in the experiment with 786-0 renal; 2270 nM with OVCAR-4 ovarian; 1820 nM in the experiment with LOX IMVI melanoma. Further, the GI50 in the experiment with COLO 205 colon was 2580 nM; in the experiment on PC-3 prostate, 4670 nM; in the experiment with SK-OV-3 ovarian, 3.76 µM; in the experiment with SW-620 colon it was 2070 nM. In addition, the TGI with MALME-3M melanoma was 5.1 µM; with RPMI-8226 leukemia it was 8.16 µM; with MCF7 breast it was 11.6 µM; with 786-0 renal it was 17.9 µM; in the experiment with OVCAR-4 ovarian it was 6.64 µM; in the experiment on LOX IMVI melanoma it was 3.44 µM. In addition, the TGI with COLO 205 colon came out at 5.55 µM; in the experiment with PC-3 prostate, 61.2 µM; in the experiment with SK-OV-3 ovarian it was 27.4 µM; in the experiment on SW-620 colon, 4.65 µM.

Consider `COc1ccc(-c2nc(-c3nc4ccc(C)cc4[nH]3)cc3c2[nH]c2ccccc23)cc1`, for which the GI50 was 5.1 µM with MALME-3M melanoma; 1850 nM in the experiment with RPMI-8226 leukemia; 3.06 µM in the experiment with MCF7 breast; 19.3 µM in the experiment on 786-0 renal; 4090 nM with OVCAR-4 ovarian; 3340 nM in the experiment with LOX IMVI melanoma. The GI50 with COLO 205 colon was 2830 nM; in the experiment with PC-3 prostate it was 2740 nM; in the experiment on SK-OV-3 ovarian, 61 µM; in the experiment on SW-620 colon, 6230 nM. The TGI with MALME-3M melanoma is 72.5 µM; in the experiment on RPMI-8226 leukemia, 5.31 µM; in the experiment with MCF7 breast, 56.3 µM; in the experiment with 786-0 renal, greater than 100 µM; with OVCAR-4 ovarian, greater than 100 µM; with LOX IMVI melanoma, 17.1 µM. In addition, the TGI is 8.21 µM in the experiment on COLO 205 colon, greater than 100 µM in the experiment on PC-3 prostate, greater than 100 µM with SK-OV-3 ovarian and greater than 100 µM in the experiment on SW-620 colon.

With `COc1ccc(-c2ccc(/C=N/n3c(COc4ccccc4Cl)nn(CN4CCOCC4)c3=S)o2)c([N+](=O)[O-])c1`, the GI50 with MALME-3M melanoma was 18 µM; with RPMI-8226 leukemia, 15200 nM; in the experiment with MCF7 breast it was 19.4 µM; with 786-0 renal, 34.4 µM; with OVCAR-4 ovarian, 35100 nM; in the experiment with COLO 205 colon it was 36600 nM. Also, the figures for the GI50 in the experiment on PC-3 prostate, in the experiment with SK-OV-3 ovarian and in the experiment with SW-620 colon were 20700 nM, 25.7 µM and 27400 nM, respectively. The TGI with MALME-3M melanoma is 44.3 µM; in the experiment with RPMI-8226 leukemia, 42.1 µM; in the experiment with MCF7 breast, 47.4 µM; in the experiment with 786-0 renal, greater than 100 µM; in the experiment on OVCAR-4 ovarian it was greater than 100 µM; with COLO 205 colon, greater than 100 µM. The TGI is 61.4 µM with PC-3 prostate, greater than 100 µM with SK-OV-3 ovarian and 87.1 µM in the experiment with SW-620 colon.

With `Cc1ccc([N+](=O)[O-])c2c(NCCNC(=O)c3cc(C(=O)NCCNc4ccnc5c(C)ccc([N+](=O)[O-])c45)n(C)n3)ccnc12`, the TGI in the experiment with MALME-3M melanoma was greater than 73.2 µM; in the experiment with RPMI-8226 leukemia, 78.3 µM; with MCF7 breast it was greater than 21.5 µM; in the experiment with 786-0 renal, 98.2 µM; in the experiment with OVCAR-4 ovarian, greater than 73.3 µM; in the experiment on LOX IMVI melanoma it was greater than 64.7 µM. Moreover, the TGI is greater than 100 µM in the experiment with COLO 205 colon, greater than 100 µM in the experiment on PC-3 prostate, greater than 100 µM in the experiment with SK-OV-3 ovarian and 53.4 µM in the experiment with SW-620 colon.

Take `CNCCCNc1nc2ccccc2c2c(=O)c3cc(OC)ccc3sc12`: the GI50 is 1.67 µM in the experiment on MALME-3M melanoma; 2220 nM with RPMI-8226 leukemia; 1.69 µM with MCF7 breast; 1.66 µM with 786-0 renal; 1960 nM with OVCAR-4 ovarian; 1570 nM in the experiment on LOX IMVI melanoma. The GI50 is 2060 nM in the experiment on COLO 205 colon, 1740 nM in the experiment with PC-3 prostate and 1720 nM in the experiment with SW-620 colon. Further, the TGI with MALME-3M melanoma turned out to be 3.15 µM; in the experiment with RPMI-8226 leukemia, 5.16 µM; in the experiment on MCF7 breast it was 3.32 µM; in the experiment with 786-0 renal, 3.17 µM; in the experiment with OVCAR-4 ovarian, 4.03 µM; in the experiment on LOX IMVI melanoma, 2.93 µM. The TGI in the experiment with COLO 205 colon turned out to be 4.4 µM; with PC-3 prostate, 3.45 µM; in the experiment on SW-620 colon, 3.28 µM.
